Experimental data taken from patent US20250003900A1, “Micro Magnetic Resonance Relaxometry (MMRR) for Rapid and Non-Invasive Detection of Senescence in Mesenchymal Stem Cells” (Massachusetts Institute of Technology, priority 2021, published 2025).

Tests used:
MSCs [1] = test: μMRR T2 measurement of MSCs with induced senescence; assay type: cell-based
Description: Cytokines such as Transforming Growth Factor-β1 (TGFβ1) and interleukin-1 (IL-1) induce senescence in MSCs. TGFβ1 is a TGF family member that controls numerous cellular functions, including proliferation and cell death. (Refs. 51 and 52) IL-1 is a proinflammatory cytokine whose expression is associated with SASP. […] The senescent cells are more in TGF-β1 treated cells than IL-1 treated cells (FIG. 8), which is also confirmed here by its decreased T2 values than IL-1 treated cells.
Since MSCs donors show differences in proliferative ability, it is important to find the limit of detection (LOD) of MRR assay in terms of the cell number. […] Here, the LOD was analyzed by decreasing the concentration of cells even lower to 4 ×10^4, 2×10^4, and 1×10^4 cells for uMRR detection as shown in the FIG. 6H and FIG. 8. […] The batches of 1, 2, and 4 (×10^4 cells) in 4 μl detection volume of TGF-β1 treated and untreated MSCs were analyzed by MRR. […]
(§1) Bone marrow-derived mesenchymal stem cells (MSC) were purchased from Lonza Pte. […] The cell number was calculated using a disposable hemocytometer (INCYTO, Korea) with the trypan blue exclusion method. […]
For all MRR experiments, the normalized concentration (3×10^5 cells) of MSCs have used unless otherwise stated. […] Proton transverse relaxation rates T2 were measured by standard Carr-Purcell-Meiboom-Gill (CPMG) pulse programme (Refs. 64 and 65) (FIG. 3B). […]

MSCs [2] = test: Immunofluorescence of proliferation marker EdU and senescence marker γ-H2AX foci in MSCs; assay type: cell-based; settings: passage 3 MSCs, 1 μM doxorubicin for 24 hours
Description: Proliferation and senescence were measured simultaneously in order to correlate cell state directly with the MRR T2 values. MSCs from the same donor were serially passaged to passage 3, passage 5, and passage 6. As a positive control for senescence cells, cells from passage 3 were also treated with doxorubicin (DOX), a chemotherapy agent that produces DNA damage and reactive oxygen species to induce senescence in tumor cells. To measure DNA synthesis, EdU (5-ethynyl-2′-deoxyuridine) was used as an indicator of active cell proliferation (shown in green). In contrast, senescent cells are known to accumulate γ-H2AX foci (indicated in red). The proliferation (Pf) index and senescence (Sn) index were calculated from these images and plotted respectively (FIG. 6C and FIG. 6D). […]
as §1
For detection of SA-βgal together with another senescence marker (γ-H2AX foci) (Ref. 66) and the proliferation marker, 5-ethynyl-2′-deoxyuridine (Edu) in the cells, the protocol was performed as previously mentioned (Ref. 67). […] Subsequently, Edu labeling was detected following the manufacturer's protocol (Invitrogen). […]

Compound | T2 values of cytokine treated cells (MSCs [1]; MSCs treated with 10 ng and 20 ng/ml cytokine) | senescent cells in TGF-β1 treated cells versus IL-1 treated cells (MSCs [1]; confirmed by decreased T2 values than IL-1 treated cells) | senescence (Sn) index (γ-H2aX) (MSCs [2]; compared to P3 and P5) | proliferation (Pf) index (MSCs [2]; compared with P3, P5 and P6)
TGFβ1: TGF family member cytokine that induces senescence in MSCs | decreased with increasing cytokine concentrations | more |  | 
COc1cccc2c1C(=O)c1c(O)c3c(c(O)c1C2=O)C[C@@](O)(C(=O)CO)C[C@@H]3O[C@H]1C[C@H](N)[C@H](O)[C@H](C)O1 [DOX, doxorubicin] |  |  | more senescent cells | lowest
